Results as given in US20220211861A1, “DRUG CONJUGATES AND METHODS OF USING SAME” (The Board of Trustees of the Leland Staford Junior …, priority 2019, published 2022).
*1 amine or outer side, *2 acyl side, *3 side chain or, on linkers, in order; H or OH if unused. Where a SMILES comes first, the peptide text is derived from it. Bridges are numbered along the chain shown (N, C = ends). Roman numbers before positions name the chains, in order. [ ]: non-standard residue; d: D form. The star is where a group is joined. X1 = O=C([C@H](CCCn1nnc2c1-c1ccccc1CN([*:3])c1ccccc1-2)N[*:1])[*:2]; Dolaproine = CO[C@@H]([C@@H]1CCCN1)[C@@H](C)C(=O)O; X3 = O=C(CCC(=O)[*:1])NCCOCCOCCOCCC(=O)[*:2]; Dil = CC[C@H](C)[C@H](NC)[C@@H](CC(=O)O)OC; PABC = O=C(OCc1ccc(N[*:1])cc1)[*:2]; X2 = C[C@@H](N*)[C@@H](O)c1ccccc1; Cit = NC(=O)NCCC[C@H](N)C(=O)O; NMeV = CN[C@H](C(=O)O)C(C)C

Tests used:
[1] = test system: RFP-expressing U87MG spheroids; assay: Confocal imaging of diffusion into tumor spheroids; assay type: cell-based; settings: multiple z-heights
Method: To verify this mechanism, an in-vitro setup was constructed to test and visualize differences in solid tumor diffusion. Solid tumor spheroids of RFP-expressing U87MG glioblastoma cells were grown in ultra-low adhesion 96-well plates. Spheroids were grown to until reaching a diameter of ˜750 μm then treated with 200 nM of AF488-labeled KDC, KFDC, or KADC and incubated for 4 h. […]
To obtain a more quantitative comparison, the relative decay of green channel intensity was compared to red channel intensity from the constitutively expressed RFP. Because the red channel should be uniform, due to stable RFP expression, and is only attenuated by the optical density of the spheroid, this signal intensity was used to correct the signal intensity of the green channel.
Spheroids of RFP-expressing U87MG cells were formed by seeding round-bottom, 96-well ultra-low adhesion plates (Corning) with 4×10^3 cells/well and centrifuging at 1000×g for 10 minutes. Spheroids were grown for 4 days, until reaching a diameter of 750 μm. Spheroids were then incubated in fresh media containing 200 nM of Alexa Fluor 488-conjugated KDC, KFDC, or KADC for 4 h. […] Quantification was performed using FIJI image analysis software. Intensity was calculated radially from the center of each spheroid and plotted as the relative ratio of green intensity corrected for the intensity of RFP as an attenuation control.

[2] = test system: RFP-expressing U87MG cells; assay: Inhibition of cell proliferation and cytotoxicity over time (IncuCyte, SYTOX green); assay type: cell-based; settings: only 3 h of exposure
Method: To assess the activity of each drug conjugate in a model more representative of in vivo therapy, a similar assay was set up incubating RFP-expressing U87MG cells with SYTOX green and imaging every 4 h. After several time points, cells were washed and media was replaced with either fresh, drug-containing media or fresh, drug-free media (FIG. 14). All conjugates maintained high potency and inhibited proliferation after only 24 h exposure (FIG. 14B). […] The inhibition of cellular proliferation mirrored the measured cytotoxicity. All conjugates induced nearly 100% cell death when incubated without washing, with a wash of drug-containing media, or with washing after 24 h (FIG. 14D, 14E). Each construct was also evaluated under an even more stringent condition, with washing after 3 h of exposure. […] KFDC and KADC experienced substantial reductions in their respective potencies and each inhibited ˜50% of cell proliferation.
RFP-expressing U87MG cells were seeded in a 96-well plate (Corning) at a density of 2.5×10^3 cells per well and grown overnight. Cells were then treated with 200 μL of fresh media containing 10 nM Cytox Green (ThermoFisher) and KDC, KFDC, KADC, or MMAE, at the approximate ED50 of 10 nM or at the saturating concentration of 100 nM. Cells were incubated in an IncuCyte S3 Live-Cell Analysis System for 5 d with images collected every 4 h. […]

[3] = test system: U87MG glioblastoma hip xenografts; assay: Ex vivo biodistribution of AF680-labeled conjugates; assay type: in vivo, mice; settings: radiant efficiency of excised organs
Method: To further assess the tumor-to-background ratio, the uptake of fluorescently-labeled drug conjugate by each organ was measured ex vivo. Nude mice bearing U87MG glioblastoma hip xenografts were injected intravenously with Alexa Fluor 680-conjugated proteins. Mice were sacrificed after 3 or 24 h and organs were removed for imaging. […] Specifically, the liver, kidneys, spleen, pancreases, heart, lungs, bladder, quadriceps, and femur (FIG. 18).
Mice bearing U87MG flank xenografts, as described above, were injected intravenously with 1.5 nmol of Alexa Fluor 680-labeled K, KFc, or KAb. Organs (tumor, liver, kidneys, spleen, pancreas, heart, lungs, bladder, quadriceps muscle, and bone) were collected at end points of 4 h and 24 h. Organs were imaged using an IVIS Spectrum (PerkinElmer). The fluorophore-conjugated protein was detected using excitation/emission wavelengths of 640 nm and 710 nm, respectively. All imaging analysis was performed using Living Image software (Caliper Life Sciences).

[4] = Liver and kidney histology (H&E) of treated mice; assay type: in vivo; settings: scored by independent pathologist, after the 60-day experiment
Text: Despite the impressive in vivo efficacy of the KDCs, there are potential concerns of acute toxicity given its rapid renal filtration and high molar dose of MMAE. […] After the 60-day experiment, livers and kidneys were harvested from treated mice, fixed in 4% paraformaldehyde (PFA), then embedded in paraffin blocks for tissue sectioning. Sections were stained with hematoxylin and eosin to visualize cellular structures and scored by an independent pathologist for evidence of acute toxicity. Representative images shown in FIG. 26 were all free from indicators of toxicity and all samples were scored identically to healthy mice.

[5] = test system: U87MG tumor spheroids; assay: Endpoint spheroid killing assay (SYTOX green, plate reader); assay type: cell-based; settings: 100 nM
Method: Next, this in vitro model was modified to test if similar cell killing could be visualized in addition to confocal imaging experiments. Spheroids were treated with drug conjugates or MMAE at a range of concentrations. After incubating with drug conjugates for 5 d, media was replaced with fresh media containing SYTOX green. Fluorescence measured by a BioTek Synergy H4 microtiter plate reader was compared to spheroids treated with lysis buffer. […] To visualize this killing over time, spheroids treated with 50 or 100 nM of drug conjugates or MMAE were imaged every 4 h using an IncuCyte.
Spheroids of U87MG cells were formed by seeding round-bottom, 96-well ultra-low adhesion plates (Corning) with 4×10^3 cells/well and centrifuging at 1000×g for 10 minutes. Spheroids were grown for 2 days before replacing media with 200 μL of fresh media containing 10 nM Cytox Green (ThermoFisher) and a range of concentrations of KDC, KFDC, KADC, or MMAE. After 4 d, trypsin-EDTA was added and cells were placed on a 60 RPM shaker for 10 min to disrupt spheroids. Green fluorescence was measured using was measured with a BioTek Synergy H4 microtiter plate reader. Percent toxicity was calculated by comparing green fluorescence to spheroids treated with lysis buffer.

[6] = test system: U87MG hip xenografts; assay: Pilot therapeutic efficacy study, dosing 3 times per week for 3 weeks; assay type: in vivo, Nu/Nu mice
Method: Using this treatment regimen as a starting point, a preliminary study was set up using 5 mice per treatment group. Mice were inoculated with 5×10^6 U87MG cells in the right flank and tumors were allowed to grow and establish until reaching an approximate area of 30 mm^2. Mice were then randomized into 1 of 4 treatment groups: PBS, KDC, KFDC, or KADC. To keep groups equivalent and provide the highest chance of efficacy for KDC despite its short circulatory half-life, all drug conjugate groups dosed 3 times per week for 3 weeks. Each dose contained the appropriate drug conjugate normalized to 2.38 nmol MMAE (˜0.6 mg/kg KDC, ˜5 mg/kg KFDC, ˜10 mg/kg KADC).

Structure (SMILES): CC[C@H](C)[C@@H]([C@@H](CC(=O)N1CCC[C@H]1[C@H](OC)[C@@H](C)C(=O)N[C@H](C)[C@@H](O)c1ccccc1)OC)N(C)C(=O)[C@@H](NC(=O)[C@H](C(C)C)N(C)C(=O)OCc1ccc(NC(=O)[C@H](CCCNC(N)=O)NC(=O)[C@@H](NC(=O)CCOCCOCCOCCNC(=O)CCC(=O)N2Cc3ccccc3-c3c(nnn3CCC[C@@H]3NC(=O)[C@@H]4CSSC[C@@H]5NC(=O)[C@H](C(C)C)NC(=O)[C@H](CSSC[C@H](NC(=O)CN)C(=O)N6CCC[C@H]6C(=O)N[C@@H](CCCNC(=N)N)C(=O)N6CCC[C@H]6C(=O)N[C@@H](CCCNC(=N)N)C(=O)NCC(=O)N[C@@H](CC(=O)O)C(=O)N[C@@H](CC(N)=O)C(=O)N6CCC[C@H]6C(=O)N6CCC[C@H]6C(=O)N[C@@H](CC(C)C)C(=O)N[C@@H]([C@@H](C)O)C(=O)N4)NC(=O)CNC(=O)[C@H](C)NC(=O)[C@H](CC(C)C)NC(=O)[C@H](CSSC[C@@H](C(=O)NCC(N)=O)NC(=O)[C@H](Cc4ccc(O)cc4)NC(=O)CNC(=O)[C@H](CC(N)=O)NC(=O)[C@@H]4CCCN4C(=O)CNC5=O)NC(=O)[C@H](CC(=O)O)NC(=O)[C@H](CO)NC(=O)[C@H](CC(=O)O)NC(=O)[C@H](CCC(N)=O)NC3=O)-c3ccccc32)C(C)C)cc1)C(C)C [KDC] (I: H-GCPRPRGDNPPLTC[X1]QDSDCLAGCVCGPNGYCG-NH2 / II: V[Cit][PABC][NMeV]V[Dil][Dolaproine]-X2; disulfide I:2-I:24, I:14-I:26, I:20-I:32; linker I:15-II:N via X3; N-terminus assumed)
- green intensity in the center of each optical slice as a function of depth [1]: remains relatively constant
- inhibition of proliferation [2]: complete cell inhibition
- organ uptake ex vivo [3]: higher kidney and bladder uptake
- liver and kidney histology, acute toxicity [4]: no evidence of acute toxicity
- spheroid killing [5]: substantially more killing than KFDC, KADC, or MMAE
- cytostatic effect maintained ([6]; dose normalized to 2.38 nmol MMAE (0.6 mg/kg KDC)): 4 of 5
- complete tumor regression ([6]; dose normalized to 2.38 nmol MMAE, 5 mice per group): 1 of 5
